From patent publication US7569593B2, “Compounds and compositions as protein kinase inhibitors” (IRM LLC, priority 2003, dated 2009)

How the values were obtained:
Assay type in all cases: biochemical
b-Raf = b-Raf (Homo sapiens, UniProt P15056); assay: b-Raf kinase inhibition assay (IκBα substrate, 384-well plate); settings: read-out: IC50 against b-Raf
Method: Compounds of the invention are tested for their ability to inhibit the activity of b-Raf. The assay is carried out in 384-well MaxiSorp plates (NUNC) with black walls and clear bottom. The substrate, IκBα is diluted in DPBS (1:750) and 15 μl is added to each well. The plates are incubated at 4° C. overnight and washed 3 times with TBST (25 mM Tris, pH 8.0, 150 mM NaCl and 0.05% Tween-20) using the EMBLA plate washer. Plates are blocked by Superblock (15 μl/well) for 3 hours at room temperature, washed 3 times with TBST and pat-dried. Assay buffer containing 20 μM ATP (10 μl) is added to each well followed by 100 nl or 500 nl of compound. B-Raf is diluted in the assay buffer (1 μl into 25 μl) and 10 μl of diluted b-Raf is added to each well (0.4 μg/well). The plates are incubated at room temperature for 2.5 hours. The kinase reaction is stopped by washing the plates 6 times with TBST. Phosph-IκBα (Ser32/36) antibody is diluted in Superblock (1:10,000) and 15 μl is added to each well. The plates are incubated at 4° C. overnight and washed 6 times with TBST. AP-conjugated goat-anti-mouse IgG is diluted in Superblock (1:1,500) and 15 μl is added to each well. Plates are incubated at room temperature for 1 hour and washed 6 times with TBST. […] Plates are read on Acquest or Analyst GT using a Fluorescence Intensity Nanxin BBT anion (505 dichroic mirror).

Lck = target: T1, Lck (Homo sapiens, UniProt P06239); assay: Upstate KinaseProfiler radio-enzymatic filter binding assay; settings: at a concentration of 10 μM; 100% means complete inhibition; read-out: percentage inhibition of Lck
T1 construct: purchased Upstate (KinaseProfiler panel)
T1 sequence (P06239 whole entry, species assumed): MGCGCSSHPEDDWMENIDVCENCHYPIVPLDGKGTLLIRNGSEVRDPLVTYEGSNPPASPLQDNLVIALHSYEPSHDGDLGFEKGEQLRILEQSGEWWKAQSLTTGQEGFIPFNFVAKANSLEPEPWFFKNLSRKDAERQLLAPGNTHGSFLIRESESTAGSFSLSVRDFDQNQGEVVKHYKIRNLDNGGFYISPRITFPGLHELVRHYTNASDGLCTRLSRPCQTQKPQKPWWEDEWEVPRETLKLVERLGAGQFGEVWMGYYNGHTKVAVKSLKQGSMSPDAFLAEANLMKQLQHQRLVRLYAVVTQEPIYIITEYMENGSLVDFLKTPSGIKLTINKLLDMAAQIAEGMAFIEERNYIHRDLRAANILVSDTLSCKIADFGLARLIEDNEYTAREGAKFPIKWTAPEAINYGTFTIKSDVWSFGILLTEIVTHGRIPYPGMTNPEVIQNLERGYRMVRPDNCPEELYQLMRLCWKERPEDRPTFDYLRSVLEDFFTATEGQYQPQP
Method: (§1) Compounds of the invention are assessed for their ability to inhibit individual members of a panel of kinases (a partial, non-limiting list of kinases includes: Abl, BCR-Abl, EGF-R, c-erbB2 kinase (HER-2), PDGF-R, lck, SAPK2α, p38, TGFβ, KDR, c-Kit, b-RAF, c-RAF, FLTI and FLT4). The compounds are tested in duplicates at a final concentration of 10 μM following this generic protocol. Note that the kinase buffer composition and the substrates vary for the different kinases included in the “Upstate KinaseProfiler™” panel. Kinase buffer (2.5 μL, 10x—containing MnCl2 when required), active kinase (0.001-0.01 Units; 2.5 μL), specific or Poly(Glu4-Tyr) peptide (5-500 μM or .01mg/ml) in kinase buffer and kinase buffer ([…]; 5 μL) are mixed in an eppendorf on ice. A Mg/ATP mix (10 μL; 67.5 (or 33.75) mM MgCl2, 450 (or 225) μM ATP and 1 μCi/μl [γ-^32P]-ATP (3000 Ci/mmol)) is added and the reaction is incubated at about 30° C. for about 10 minutes. The reaction mixture is spotted (20 μL) onto a 2 cm×2 cm P81 (phosphocellulose, for positively charged peptide substrates) or Whatman No. 1 (for Poly (Glu4-Tyr) peptide substrate) paper square. The assay squares are washed 4 times, for 5 minutes each, with 0.75% phosphoric acid and washed once with acetone for 5 minutes. The assay squares are transferred to a scintillation vial, 5 ml scintillation cocktail are added and ^32P incorporation (cpm) to the peptide substrate is quantified with a Beckman scintillation counter. Percentage inhibition is calculated for each reaction.

Abl = target: T2, Abl (Homo sapiens, UniProt P00519); assay: as above; settings: at a concentration of 10 μM; 100% means complete inhibition; read-out: percentage inhibition of Abl
T2 construct: purchased Upstate (KinaseProfiler panel)
T2 sequence (P00519 whole entry, species assumed): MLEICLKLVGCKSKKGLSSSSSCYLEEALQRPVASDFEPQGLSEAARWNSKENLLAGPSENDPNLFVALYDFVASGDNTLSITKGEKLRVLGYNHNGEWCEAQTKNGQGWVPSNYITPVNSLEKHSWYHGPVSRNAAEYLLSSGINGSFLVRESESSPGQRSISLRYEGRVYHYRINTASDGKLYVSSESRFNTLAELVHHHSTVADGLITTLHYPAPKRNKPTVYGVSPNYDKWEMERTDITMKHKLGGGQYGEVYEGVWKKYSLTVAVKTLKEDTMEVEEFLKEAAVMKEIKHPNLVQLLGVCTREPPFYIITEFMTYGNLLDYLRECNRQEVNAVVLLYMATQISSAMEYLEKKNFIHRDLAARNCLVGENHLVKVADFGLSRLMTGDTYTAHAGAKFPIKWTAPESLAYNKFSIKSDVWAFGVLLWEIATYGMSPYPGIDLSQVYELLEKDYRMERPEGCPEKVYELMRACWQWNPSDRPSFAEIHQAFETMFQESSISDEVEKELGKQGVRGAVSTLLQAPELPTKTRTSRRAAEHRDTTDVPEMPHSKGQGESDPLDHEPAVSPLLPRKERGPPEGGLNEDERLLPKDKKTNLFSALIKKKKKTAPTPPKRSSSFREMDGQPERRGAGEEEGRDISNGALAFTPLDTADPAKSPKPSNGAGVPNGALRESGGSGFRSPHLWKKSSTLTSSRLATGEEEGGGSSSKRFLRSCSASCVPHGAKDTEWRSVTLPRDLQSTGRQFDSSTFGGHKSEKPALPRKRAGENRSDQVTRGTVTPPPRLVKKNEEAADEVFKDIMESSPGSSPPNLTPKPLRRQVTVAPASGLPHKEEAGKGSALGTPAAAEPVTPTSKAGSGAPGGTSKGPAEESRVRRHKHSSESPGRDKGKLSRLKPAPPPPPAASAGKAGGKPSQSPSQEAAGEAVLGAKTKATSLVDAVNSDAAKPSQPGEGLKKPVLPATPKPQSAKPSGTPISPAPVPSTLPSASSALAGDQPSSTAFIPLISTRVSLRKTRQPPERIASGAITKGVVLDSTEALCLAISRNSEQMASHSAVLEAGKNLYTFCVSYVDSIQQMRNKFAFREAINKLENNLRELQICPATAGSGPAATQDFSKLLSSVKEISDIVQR
Method: as §1

c-RAF = target: T3, c-RAF (Homo sapiens, UniProt P04049); assay: as above; settings: at a concentration of 10 μM; 100% means complete inhibition; read-out: percentage inhibition of c-RAF
T3 construct: purchased Upstate (KinaseProfiler panel)
T3 sequence (P04049 whole entry): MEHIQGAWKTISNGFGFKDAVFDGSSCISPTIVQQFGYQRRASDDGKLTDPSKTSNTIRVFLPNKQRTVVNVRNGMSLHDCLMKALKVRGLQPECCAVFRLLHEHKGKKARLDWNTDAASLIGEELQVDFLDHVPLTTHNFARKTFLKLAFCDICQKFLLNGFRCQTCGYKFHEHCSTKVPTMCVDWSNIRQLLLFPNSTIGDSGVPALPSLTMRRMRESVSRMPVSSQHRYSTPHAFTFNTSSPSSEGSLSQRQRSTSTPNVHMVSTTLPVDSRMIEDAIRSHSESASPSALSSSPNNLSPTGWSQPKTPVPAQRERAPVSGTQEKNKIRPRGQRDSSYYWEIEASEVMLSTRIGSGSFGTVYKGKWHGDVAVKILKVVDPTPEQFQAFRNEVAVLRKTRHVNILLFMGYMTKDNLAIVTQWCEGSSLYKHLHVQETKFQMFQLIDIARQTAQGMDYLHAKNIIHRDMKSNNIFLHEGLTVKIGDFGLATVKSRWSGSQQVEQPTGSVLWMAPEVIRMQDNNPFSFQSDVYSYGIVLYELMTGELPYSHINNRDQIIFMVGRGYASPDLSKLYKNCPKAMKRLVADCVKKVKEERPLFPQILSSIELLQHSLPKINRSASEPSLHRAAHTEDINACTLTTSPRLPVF
Method: as §1

SAPK2α = target: T4, SAPK2α (Homo sapiens, UniProt Q16539); assay: as above; settings: at a concentration of 10 μM; 100% means complete inhibition; read-out: percentage inhibition of SAPK2α
T4 construct: purchased Upstate (KinaseProfiler panel)
T4 sequence (Q16539 whole entry): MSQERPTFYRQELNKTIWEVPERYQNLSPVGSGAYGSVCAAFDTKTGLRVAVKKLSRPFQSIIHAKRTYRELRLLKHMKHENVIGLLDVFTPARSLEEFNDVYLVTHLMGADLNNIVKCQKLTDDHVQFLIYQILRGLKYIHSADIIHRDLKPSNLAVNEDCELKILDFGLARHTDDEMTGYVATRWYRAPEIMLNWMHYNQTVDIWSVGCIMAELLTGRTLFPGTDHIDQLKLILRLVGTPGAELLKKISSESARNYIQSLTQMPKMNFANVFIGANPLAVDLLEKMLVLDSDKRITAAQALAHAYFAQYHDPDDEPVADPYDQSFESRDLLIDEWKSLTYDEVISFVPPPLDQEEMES
Method: as §1

Sequence of b-Raf (P15056 whole entry): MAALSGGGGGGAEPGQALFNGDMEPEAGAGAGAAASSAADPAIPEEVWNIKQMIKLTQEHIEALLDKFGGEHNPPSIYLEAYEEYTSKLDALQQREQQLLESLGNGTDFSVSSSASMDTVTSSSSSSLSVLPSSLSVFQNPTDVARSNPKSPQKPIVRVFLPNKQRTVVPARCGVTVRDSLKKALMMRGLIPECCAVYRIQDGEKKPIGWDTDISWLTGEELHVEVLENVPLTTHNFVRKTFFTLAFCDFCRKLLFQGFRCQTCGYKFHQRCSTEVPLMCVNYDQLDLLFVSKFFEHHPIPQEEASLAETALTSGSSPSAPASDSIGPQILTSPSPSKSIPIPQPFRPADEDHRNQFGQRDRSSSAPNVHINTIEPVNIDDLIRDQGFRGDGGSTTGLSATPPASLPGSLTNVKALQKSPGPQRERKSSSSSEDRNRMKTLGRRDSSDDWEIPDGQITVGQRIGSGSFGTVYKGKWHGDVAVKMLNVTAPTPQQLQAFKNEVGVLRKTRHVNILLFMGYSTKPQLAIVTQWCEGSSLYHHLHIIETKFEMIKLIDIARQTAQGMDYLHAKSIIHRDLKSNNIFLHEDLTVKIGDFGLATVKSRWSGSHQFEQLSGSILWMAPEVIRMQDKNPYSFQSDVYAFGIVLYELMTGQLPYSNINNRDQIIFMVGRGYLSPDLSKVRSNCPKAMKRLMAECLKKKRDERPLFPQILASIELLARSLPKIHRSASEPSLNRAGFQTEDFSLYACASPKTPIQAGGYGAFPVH

inhibition at 10 µM (Lck) [%]	inhibition at 10 µM (Abl) [%]	inhibition at 10 µM (c-RAF) [%]	inhibition at 10 µM (SAPK2α) [%]	Structure (SMILES)	IC50 (b-Raf) [µM]
61	98	98	74	Oc1ccc2cc(-c3nc(-c4ccccc4)[nH]c3-c3ccncc3)ccc2c1 [Compound 11, 6-(2-phenyl-5-pyridin-4-yl-1H-imidazol-4-yl)-naphthalen-2-ol]	0.3
				CN(C)c1ccc(NC(=O)Oc2ccc3cc(-c4nc(-c5ccccc5)[nH]c4-c4ccncc4)ccc3c2)cc1 [Compound 15, (4-dimethylamino-phenyl)-carbamic acid 6-(2-phenyl-5-pyridin-4-yl-1H-imidazol-4-yl)-naphthalen-2-yl ester]	0.879
